Laboratory results reported in patent US5942493A, “LH-RH antagonists having improved action” (ASTA Medica Aktiengesellschaft, priority 1995, dated 1999).
Like-named read-outs stand apart in the source and are kept apart here. *1 amine or outer side, *2 acyl side, *3 side chain or, on linkers, in order; H or OH if unused. Where a SMILES comes first, the peptide text is derived from it. Side-chain parts run from the residue outwards. [ ]: non-standard residue; d: D form. The star is where a group is joined. NH(4-amidinophenyl) = N=C(N)c1ccc(N*)cc1; dPhe(4-Cl) = N[C@H](Cc1ccc(Cl)cc1)C(=O)O; d2Nal = N[C@H](Cc1ccc2ccccc2c1)C(=O)O; dCit = NC(=O)NCCC[C@@H](N)C(=O)O; d3Pal = N[C@H](Cc1cccnc1)C(=O)O; Suc = O=C(CCC(=O)[*:2])[*:1]

Key:
[1] = biological target: T1, human LH-RH receptor (Homo sapiens, UniProt P30968); test: Competitive binding test (displacement of [125I] Cetrorelix) on cell clone L3.5/78
T1 construct: expressed in transfected cells
T1 sequence (P30968 1-328): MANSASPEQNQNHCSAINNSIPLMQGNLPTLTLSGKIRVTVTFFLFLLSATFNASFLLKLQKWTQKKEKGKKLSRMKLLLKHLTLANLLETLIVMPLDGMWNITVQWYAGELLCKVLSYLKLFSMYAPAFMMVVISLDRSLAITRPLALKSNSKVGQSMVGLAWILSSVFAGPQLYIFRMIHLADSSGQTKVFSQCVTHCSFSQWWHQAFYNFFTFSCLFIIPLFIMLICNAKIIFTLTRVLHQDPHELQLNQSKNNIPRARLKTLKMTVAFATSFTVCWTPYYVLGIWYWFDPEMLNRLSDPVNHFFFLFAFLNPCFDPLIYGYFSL
Protocol: Method for the determination of the binding affinity (dissociation constant Kd):
The binding affinity was determined by a competitive binding test ("displacement binding experiment"; Beckers et al. Eur. J. Biochem. 231, 535-543, 1995). The radiolabelled ligand used is [^125 I] Cetrorelix (specific activity 5-10×10^5 dpm/pmol; dissolved in 20% v:v acetonitrile, 0.2% w:v albumin, 0.1% w:v TFA, ~80% v:v aqua). The binding ability of the iodinated peptide is between 60% and 85%. The non-labelled test compounds used are Cetrorelix, Example 1, Example 2 and […] in solution. The substances are employed in concentrations of 0.01 nM-1000 nM (Cetrorelix, Example 1, Example 2) or 0.01 μM-10 μM (Example 56).
The cells of the individual cell clone L3.5/78 verexpressing the human LH-RH receptor which are used for the binding test are removed with PBS/EDTA (PBS without Ca^2+ /Mg^2+ /1 mM EDTA) from a cell culture dish grown under non-confluent conditions, the cell count is determined and the cells are resuspended in incubation medium (Dulbecco's modified Eagle Medium with 4.5 g/l glucose, 10 mM Hepes pH 7.5, 0.5% w:v BSA, 1 g/l bacitracin, 0.1 g/l SBTI, 0.1% w:v NaN3) at a corresponding cell density. 200 μl of silicone/paraffin oil mixture (84/16% by volume) are initially introduced into special 400 μl reaction vessels (Renner, Beckman type) and 50 μl of the cell suspension (2.5×10^5 cells) are pipetted onto it. 50 μl of binding medium containing [^125 I] Cetrorelix and the compound to be tested at the appropriate concentration are added to the cell suspension on the silicone/paraffin oil layer. The mixture is then incubated with rotation for 60 min at 37° C. in a warm cabinet. After this step, it is centrifuged at 9000 rpm (room temperature) for 2 min in the Heraeus Biofuge 15 in the HTA 13.8 rotor. In the course of this, the cells pelletize through the silicone/paraffin oil layer and are thus separated from the binding medium. After centrifugation, the reaction vessels are shock-frozen in liquid N2 and the tip of the reaction vessel (cell pellet) is cut off with a pair of pincers and the tip containing the cell pellet (bound ligand [^125 I] Cetrorelix) and the supernatant (unbound, free ligand [^125 I] Cetrorelix) are transferred to counting tubes. To determine the maximum binding (Bo), no competitor is added. For the determination of non-specific binding, 1 μM unlabelled Cetrorelix is added for competition. At ≤10% of the total binding Bo, the non-specific binding is low. Quantification is carried out in a γ-counter; analysis is carried out using the EBDA/ligand V3.0 programme (McPherson, J. Pharmacol. Methods 14, 213-228, 1985). Plotting in the dose-response graph makes possible the estimation of the IC50 (concentration which causes 50% inhibition of the reaction at the receptor) and the EBDA/ligand programme calculates the dissociation constant Kd [nM] from this.

[2] = test system: histamine release; test: Histamine release in vitro
[3] = Water solubility; type: physicochemical
[4] = biological target: T1, human LH-RH receptor; test: Functional assay: inhibition of LH-RH-stimulated IP3 formation in cell clone L 3.5/78; type: cell-based; conditions: for IC50: stimulation with 10 nM LH-RH, estimated from dose-response curve
Protocol: Method for the determination of IP3 (D-myo-[…]): a subconfluent culture of the cell clone (L 3.5/78) overexpressing the human LH-RH receptor is washed 1× with PBS, the cells are removed with PBS/EDTA and the cell suspension is pelletted. The cells are resuspended in incubation medium (Dulbecco's modified Eagle Medium with 4.5 g/l of glucose, 10 mM Hepes pH 7.5, 0.5% w:v BSA, 5 mM of LiCl, 1 g/l of bacitracin, 0.1 g/l of SBTI), aliquoted into 1.5 ml reaction vessels and preincubated at 37° C. for 30 min. 4×10^6 cells in a 500 μl volume are needed per measuring point. After the preincubation step, LH-RH (stock solution 0.5 mM in 10 mM tris pH 7.5, 1 mM dithiothreitol, 0.1% w:v BSA/Bachem Art # H4005) are added to the cell suspension at a final concentration of 10 nM. The action of an antagonist is tested by simultaneous addition at the corresponding concentration (for example 0.0316, 0.1, 0.316 etc. up to 100 nM for Example 2). As a negative control, cells without added LH-RH are incubated. After incubation at 37° C. for 15 min, IP3 formed is isolated from the cells by means of trichloroacetic acid (TCA) extraction. To this end, 500 μl of ice-cold 15% (w:v) TCA solution are added to the cell suspension. The resulting precipitate is pelletted by centrifugation at […] in the Heraeus Biofuge 15R centrifuge at 2000×g for 15 min. The supernatant of 950 μl is extracted 3× with 10 vol of cold, water-saturated diethyl ether in a 15 ml vessel standing on ice. After the last extraction step, the solution is adjusted to a pH of 7.5 with 0.5 M NaHCO3 solution.
The determination of the IP3 concentration in the cell extracts is carried out by means of a sensitive competitive binding test using an IP3 binding protein, labelled [^3 H]-IP3 and unlabelled IP3. To this end, an assay kit from Amersham (TRK 1000) is used; the determination is carried out as described in the assay protocol. After carrying out the various steps, 2 ml of scintillator for aqueous samples (Rotiszint Ecoplus) is finally added, the resuspended pellet containing the bound [^3 H]-IP3 is carefully mixed with it, and measured in a β-scintillation counter. The amount of cellular IP3 is calculated using a standard curve and a dose-response curve is set up. The IC50 can be estimated from the inflection point of this curve.

[5] = test system: testosterone in the blood; test: Hormone-suppressive action: testosterone suppression in the healthy male rat; type: in vivo
Protocol: To determine the suppression of testosterone in the blood of healthy male rats, the substance was injected subcutaneously into the right flank of the animals. The dosage was 1.5 mg/kg in the case of Example 1 and Example 2 and 10 mg/kg in the case of Example 56. To check the testosterone values, about 300 μl of blood were taken from the animals from the sublingual vein at the times 0, 2, 4, 8 (only Example 56), 24, 48, 72 and 96 hours, and then every 3 days until the end of suppression. […] Example 56 (10 mg/kg s.c.) suppressed the testosterone level in all 5 animals even after 2 hours and maintained this action for up to 8 hours. At the next measuring point (24 h), the testosterone values rose again (FIG. 6).

[6] = mean values from various experiments, number of experiments in brackets, read-out: Affinity human LH-RH receptor (dissociation constant Kd)
[7] = [125I] Cetrorelix as ligand, single curves of FIG. 1, read-out: binding affinity as the dissociation constant Kd (competition curves of FIG. 1)
[8] = 10 mg/kg s.c., healthy male rats, all 5 animals

Row | SMILES | Kd [1, 6] [nM] | Kd [1, 7] [nM] | (IC50) Histamine releage [2] [µg/mL] | H2O Solubility [3] [mg/mL] | IC50 [4] [nM] | also measured
1 | CC(=O)N[C@H](Cc1ccc2ccccc2c1)C(=O)N[C@H](Cc1ccc(Cl)cc1)C(=O)N[C@H](Cc1cccnc1)C(=O)N[C@@H](CO)C(=O)N[C@@H](Cc1ccc(O)cc1)C(=O)N[C@H](CCCCNC(=O)C1CNC(=O)N1)C(=O)N[C@@H](CC(C)C)C(=O)N[C@@H](CCCNC(=N)N)C(=O)N1CCC[C@H]1C(=O)N[C@H](C)C(N)=O (single isomer, unassigned) [Example 3] | 0.17 |  |  |  |  | 
2 | CC(=O)N[C@H](Cc1ccc2ccccc2c1)C(=O)N[C@H](Cc1ccc(Cl)cc1)C(=O)N[C@H](Cc1cccnc1)C(=O)N[C@@H](CO)C(=O)N[C@@H](Cc1ccc(O)cc1)C(=O)N[C@H](CCCCNC(=O)C1CNC(=O)N1)C(=O)N[C@@H](CC(C)C)C(=O)N[C@@H](CCCNC(=N)N)C(=O)N1CCC[C@H]1C(=O)N[C@H](C)C(N)=O (single isomer, unassigned) [Example 1, Ac-D-Nal(2)-D(pCl)Phe-D-Pal(3)-Ser-Tyr-D-[ε-N'-(imidazolidin-2-on-4-yl)formyl]-Lys-Leu-Arg-Pro-D-Ala-NH2] | 0.306 | 0.305 | 31.9 | 27 |  | 
3 | N=C(N)c1ccc(NC(=O)CCC(=O)NCCCCC(NC(=O)OCc2ccccc2)C(N)=O)cc1.O=C(O)C(F)(F)F (stereo not shown) [Example 56] | 1080 |  |  |  | ~4000 | functional character at the LH-RH receptor ([4]; 10 nM LH-RH, IP3 formation): functional antagonists of LH-RH; agonistic activity (stimulation of IP3 synthesis by the substance itself) ([4]; without LH-RH): not possible to determine any agonistic activity; duration of testosterone suppression [5, 8]: up to 8 hours; time at which testosterone level was already suppressed [5, 8]: 2 h
4 | CC(=O)N[C@H](Cc1ccc2ccccc2c1)C(=O)N[C@H](Cc1ccc(Cl)cc1)C(=O)N[C@H](Cc1cccnc1)C(=O)N[C@@H](CO)C(=O)N[C@@H](Cc1ccc(O)cc1)C(=O)N[C@H](CCCCNC(=O)CCC(=O)Nc1ccc(C(=N)N)cc1)C(=O)N[C@@H](CC(C)C)C(=O)N[C@@H](CCCNC(=N)N)C(=O)N1CCC[C@H]1C(=O)N[C@H](C)C(N)=O [Example 2, Ac-D-Nal(2)-D(pCl)Phe-D-Pal(3)-Ser-Tyr-D-[ε-N'-4-(4-amidinophenyl)amino-1,4-dioxobutyl]-Lys-Leu-Arg-Pro-D-Ala-NH2] (Ac-[d2Nal][dPhe(4-Cl)][d3Pal]SY[dK]([Suc-NH(4-amidinophenyl)])LRP[dA]-NH2) |  | 0.104 | 17.1 | 23 | ~0.4 | Kd ([1]; quoted in Example 84, read-out: in vitro binding affinity Kd, competitive binding test using [125I]-Cetrorelix): 0.109 nM
5 | CC(=O)N[C@H](Cc1ccc2ccccc2c1)C(=O)N[C@H](Cc1ccc(Cl)cc1)C(=O)N[C@H](Cc1cccnc1)C(=O)N[C@@H](CO)C(=O)N[C@@H](Cc1ccc(O)cc1)C(=O)N[C@H](CCCNC(N)=O)C(=O)N[C@@H](CC(C)C)C(=O)N[C@@H](CCCNC(=N)N)C(=O)N1CCC[C@H]1C(=O)N[C@H](C)C(N)=O [Cetrorelix, Ac-D-Nal(2)-D-p-Cl-Phe-D-Pal(3)-Ser-Tyr-D-Cit-Leu-Arg-Pro-D-Ala-NH2, reference compound] (Ac-[d2Nal][dPhe(4-Cl)][d3Pal]SY[dCit]LRP[dA]-NH2) | 0.202 | 0.214 | 9.7 | 9 |  | (1.5 mg/kg, single dose) testosterone suppression rats ([5]; 1.5 mg/kg, single dose, rats): 144 h
6 | CC(=O)N[C@H](Cc1ccc2ccccc2c1)C(=O)N[C@H](Cc1ccc(Cl)cc1)C(=O)N[C@H](Cc1cccnc1)C(=O)N[C@@H](CO)C(=O)N[C@@H](Cc1ccc(O)cc1)C(=O)N[C@H](CCCCNC(=O)CCC(=O)Nc1ccc(C(=N)N)cc1)C(=O)N[C@@H](CC(C)C)C(=O)N[C@@H](CCCNC(=N)N)C(=O)N1CCC[C@H]1C(=O)N[C@H](C)C(N)=O [Example 4] (Ac-[d2Nal][dPhe(4-Cl)][d3Pal]SY[dK]([Suc-NH(4-amidinophenyl)])LRP[dA]-NH2) | 0.206 |  |  |  |  | 
